# According to patent US6441205B1, “Synthetic precursors to 4-(P-methoxyphenyl)-2-amino-butane” (Council of Scientific and Industrial Research, priority 2000, dated 2002):
# Where two headings read alike, the source gives them in different places.
# Assays:
# [1] = tested on: 4th instar larvae of Spilarctia obliqua; assay: feeding deterrency (antifeedant) bioassay, diet-mix method; assay type: in vivo, Spilarctia obliqua (Bihar hairy caterpillar); conditions: for % feeding deterrency: diet-mix, fecal pellets after 24 hours; for antifeedant activity (in words): bioassay studies
# Description: (§1) The compound having formula (1) was evaluated as feeding deterrent and growth inhibitor against 4th in star larvae of spilarctia obliqua (Bihar hairy caterpillar). This insect attacks more than twenty cash crops like urd, moong, arhar, mint and coleus etc. Several synthetic insecticides like quinalphos, Phosphamidon and synthetic pyrethroids are commercially used to manage this insect pest. But, the insect is developing resistance towards some of these insecticides. Therefore, it has now become imperative to search for new ecologically safe, environmentally sound and non-toxic chemicals to manage this pest.
# (§2) With compound having formula (1) insect feeding deterrency and growth inhibition was tested by diet-mix method. In this method, 4-(p-methoxyphenyl)-2-aminobutane the compound having formula (1) was dissolved in acetone to make various concentrations ranging from 1000 to 5000 ppm. Test solution was mixed in the artificial diet of the insect so that each gram of diet contained 60-300 μg of the compound (1). 4th in star larva (newly molted) starved four hours, was weighed and released on treated artificial diet in thirty replications. In control, only solvent acetone was mixed and azadirachtin at 1000 ppm concentration was taken as standard for feeding bioassay. After 24 hours, number of fecal pellets produced were counted, and the data were analyzed for % feeding deterrency. Some experiments were continued for next 24 hours and weights of the larva were taken daily. After 3 days, experiment was discontinued and weight gain or loss was analyzed for % growth inhibition.
# Diflubenzuron at 5 ppm was taken as a standard in case of growth inhibitory assay. The test result of compound having formula (1) in terms of its feeding deterrency and growth inhibition as compared to standards azadirachtin and diflubenzuron are given in table 1.
# [2] = exposure to sun light; cited from earlier work
# [3] = tested on: 4th instar larvae of Spilarctia obliqua; assay: growth inhibition bioassay, diet-mix method; assay type: in vivo, Spilarctia obliqua (Bihar hairy caterpillar); conditions: bioassay studies
# Description: as §1
# as §2, with “In control, only solvent acetone was mixed and azadirachtin at 1000 ppm concentration was taken as standard for feeding bioassay.” left out, “Some experiments were continued for next 24 hours and weights of the larva were taken daily.” left out, “inhibition. […]” for “inhibition.”
# [4] = sensitivity to light (UV and sunlight); assay type: physicochemical; conditions: both UV and sunlight
Structure (SMILES),% feeding deterrency ([1]; 1000 ppm) [%],sensitivity to light [2],antifeedant activity (in words) [1],growth inhibition activity (in words) [3],% feeding deterrency ([1]; 2000 ppm) [%],% feeding deterrency ([1]; 3000 ppm) [%],% feeding deterrency ([1]; 4000 ppm) [%],% feeding deterrency ([1]; 5000 ppm) [%],sensitivity to light [4]
"C/C=C(\C)C(=O)O[C@H]1C[C@@H](OC(C)=O)[C@@]2(C(=O)OC)CO[C@H]3[C@@H](O)[C@@](C)([C@]45O[C@@]4(C)[C@H]4C[C@@H]5O[C@@H]5OC=C[C@@]54O)[C@H]4[C@]1(CO[C@]4(O)C(=O)OC)[C@@H]32 [Azadirachtin, reference compound]",100.0,photosensitive,,,,,,,
"CC(O)CCc1ccc(O)cc1 (stereo not drawn) [compound (2), 4-(p-hydroxyphenyl)-butan-2-ol]",,,not found to be active,not found to be active,,,,,
"COc1ccc(CCC(C)N)cc1 (stereo not drawn) [Compound 1, 4-(p-methoxyphenyl)-2-amino butane]",32.0,,significant activity,significant activity,40.0,64.0,82.0,100.0,not sensitive to light
